The text below walks through data of publication PMC7151078, “A Novel NMDA Receptor Antagonist Protects against Cognitive Decline Presented by Senescent Mice” (Pharmaceutics, 2020).

The target in one data set is T1, CYP1A2 (Homo sapiens, UniProt P05177).
T1 construct: host or cells: insect cell microsomes
T1 sequence (P05177 1-516): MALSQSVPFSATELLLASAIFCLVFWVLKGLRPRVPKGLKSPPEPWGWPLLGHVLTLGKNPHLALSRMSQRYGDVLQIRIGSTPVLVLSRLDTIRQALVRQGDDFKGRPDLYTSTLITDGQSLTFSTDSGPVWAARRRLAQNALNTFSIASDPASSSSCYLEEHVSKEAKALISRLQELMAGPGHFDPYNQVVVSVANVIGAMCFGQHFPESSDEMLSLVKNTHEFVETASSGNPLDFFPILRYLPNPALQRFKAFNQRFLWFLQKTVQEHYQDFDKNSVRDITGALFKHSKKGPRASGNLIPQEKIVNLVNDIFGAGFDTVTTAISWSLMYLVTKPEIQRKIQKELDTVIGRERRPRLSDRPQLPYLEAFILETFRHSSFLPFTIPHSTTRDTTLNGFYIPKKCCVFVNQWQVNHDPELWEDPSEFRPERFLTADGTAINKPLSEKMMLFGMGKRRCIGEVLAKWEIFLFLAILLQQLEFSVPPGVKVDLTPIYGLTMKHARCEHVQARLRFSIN
In words: Cytochrome inhibition, fluorescent detection (CEC substrate). Format: in vitro ADME. Particulars: recombinant human CYP1A2. The method, then:
(§1) To screen the inhibition potential of the compounds, recombinant human cytochrome P450 enzymes (CYP1A2, CYP2C9, CYP2C19, CYP2D6, and CYP3A4) and probe substrates were used with the fluorescent detection method. Incubations were conducted in 200-µL volume 96 well microtiter plates (COSTAR 3915). Addition of cofactor-buffer mixture (KH2PO4 buffer, 1.3 mM NADP+, 3.3 mM MgCl2, 3.3 mM Glucose-6-phosphate and 0.4 U/mL Glucose-6-phosphate Dehydrogenase), supersomes control, standard inhibitors (Furafyline, Tranylzypromine, Ketoconazole, Sulfaphenazole, and Quinidine; from Sigma Aldrich), and test compounds to plates were carried out using a a liquid handling station (Zephyr Caliper). The plate was then pre-incubated at 37 °C for 5 min, and the reaction initiated by the addition of pre-warmed enzyme/substrate (E/S) mix. […] Fluorescence per well was measured using a fluorescence plate reader (Tecan M1000 pro), and the percentage of inhibition was calculated.

The next data set deals with T2, CYP2C19 (Homo sapiens, UniProt P33261).
T2 construct: host or cells: insect cell microsomes
T2 sequence (P33261 whole entry): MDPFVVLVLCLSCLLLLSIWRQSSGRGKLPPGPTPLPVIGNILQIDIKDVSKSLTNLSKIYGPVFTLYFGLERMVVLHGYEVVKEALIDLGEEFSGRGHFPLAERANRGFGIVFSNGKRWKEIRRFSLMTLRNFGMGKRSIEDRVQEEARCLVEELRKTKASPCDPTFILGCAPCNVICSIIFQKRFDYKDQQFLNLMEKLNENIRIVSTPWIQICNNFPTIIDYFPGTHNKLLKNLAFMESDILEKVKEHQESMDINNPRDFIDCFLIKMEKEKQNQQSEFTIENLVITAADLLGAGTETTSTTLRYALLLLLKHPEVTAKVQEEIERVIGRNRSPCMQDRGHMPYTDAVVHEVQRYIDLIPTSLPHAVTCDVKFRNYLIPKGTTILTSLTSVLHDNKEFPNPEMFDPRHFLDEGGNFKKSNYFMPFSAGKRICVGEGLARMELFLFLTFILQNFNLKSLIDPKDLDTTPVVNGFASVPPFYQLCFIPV
Described as above. Format: in vitro ADME. Particulars: recombinant human CYP2C19. The method, then:
as §1

The next data set relates to SAMR1 and SAMP8 mice. In words: Hippocampal gene expression by real-time qPCR. Format: in vivo, mouse. As to conditions: hippocampus. The protocol:
Male SAMR1 and SAMP8 mice (n = 41) with 20-weeks-old were used to carry out cognitive and molecular analysis. The animals were randomly divided into four groups: SAMR1 control (SR1 Ct) group (n = 11), SAMP8 control (SP8 Ct) group (n = 8), SAMR1 treated with RL-208 (SR1 RL-208 (5 mg/Kg)) group (n = 10) and SAMP8 treated with RL-208 (SP8 RL-208 (5 mg/Kg)) group (n = 12). Animals had free access to food and water, under standard temperature conditions (22±2 °C) and 12h:12h light-dark cycles (300 lux/0 lux). RL-208, (3,4,8,9-tetramethyltetracyclo[4.4.0.0^3,9.0^4,8]dec-1-yl)-methylamine hydrochloride, (5 mg/kg/day) was administered through drinking water for four weeks before starting the cognitive test. RL-208 was administered up to euthanasia (Figure 1A). Water consumption was controlled each week for each cage and strain. Afterwards, RL-208 concentration was adjusted accordingly to reach the optimal dose for each cage. Total RNA isolation from hippocampal samples was carried out using TRIsure^TM reagent following the manufacturer’s instructions (Bioline, Meridian Bioscience Inc., UK). The yield, purity, and quality of RNA were determined spectrophotometrically with a NanoDrop^TM ND-1000 (Thermo Scientific, Wilmington, DE, USA) apparatus and an Agilent 2100B Bioanalyzer (Agilent Technologies, Palo Alto, CA, USA). RNAs with 260/280 ratios and RIN higher than 1.9 and 7.5, respectively, were selected. Reverse transcription-polymerase chain reaction (RT-PCR) was performed as follows: 2 μg of messenger RNA (mRNA) was reverse-transcribed using the High Capacity cDNA Reverse Transcription kit (Applied Biosystems, Foster City, CA, USA). Real-time quantitative PCR (qPCR) was used to quantify the mRNA expression of OS and synaptic plasticity genes listed in Table S2. SYBR® Green real-time PCR was performed on a Step One Plus Detection System (Applied-Biosystems, Foster City, CA, USA) employing SYBR® Green PCR Master Mix (Applied-Biosystems, Foster City, CA, USA). Each reaction mixture contained 6.75 μL of complementary DNA (cDNA) (which concentration was 2 μg), 0.75 μL of each primer (which concentration was 100 nM), and 6.75 μL of SYBR® Green PCR Master Mix (2X). Data were analyzed utilizing the comparative cycle threshold (Ct) method (ΔΔCt), where the housekeeping gene level was used to normalize differences in sample loading and preparation. Normalization of expression levels was performed with β-actin for SYBR® Green-based real-time PCR results. Each sample was analyzed in duplicate, and the results represent the n-fold difference of the transcript levels among different groups.

Turning to `CC12CC3CC1(C)C1(C)CC3(CN)CC21C.Cl` [RL-208, (3,4,8,9-tetramethyltetracyclo [4.4.0.0^3,9.0^4,8]dec-1-yl)methylamine hydrochloride], on CYP1A2, the CYP1A2 inhibition is on record as 5 ± 2%. For the same compound, the CYP2C19 inhibition on CYP2C19 is reported as 23 ± 1%. Also, in the data set on SAMR1 and SAMP8 mice (RL-208 treated mice groups vs control groups), the Tgf gene expression entry was “significant gain”. The Vgf gene expression result is “significant increase” with SAMR1 and SAMP8 mice (SP8 RL-208 vs SP8 Ct); “no changes” with SAMR1 and SAMP8 mice (between SR1 mice groups). In addition, the Cox2 gene expression result in the data set with SAMR1 and SAMP8 mice (treated groups vs controls, significant in the SP8 strain) is listed as “decreased”. Moreover, in the data set with SAMR1 and SAMP8 mice (treated mice), the Hmox1 gene expression entry is reported as “elevated”.
